Test results reported in paper PMC9618103, “Exploratory toxicology studies of 2,3-substituted imidazo[1,2-a]pyridines with antiparasitic and anti-inflammatory properties” (Toxicology Research, 2022).

Experiments:
NIH mice = assay: Acute oral toxicity, median lethal dose (LD50); assay type: in vivo; conditions: for Category (GHS acute oral toxicity hazard category) / Hazard statement (GHS): based on oral LD50, according to GHS [39]; for Oral LD50: female NIH mice, single oral dose, 14 days observation
Experimental: All treatments were administrated orally (p.o.) according to the scheme mentioned below.
Acute toxicity tests were performed in order to measure the median lethal dose (LD50). After acclimatization, mice were randomly allocated to ten groups (n = 4), including the control group (e.g. water, Tween 80, or PO) and the experimental groups, each with a single dose of one of the IMPYs at 4 levels of dose (0.5, 1.0, 2.0, and 4.0 g/kg b.w.).
Animals were food deprived overnight prior to administration of the chemical compounds or vehicles, and food was returned 4 h after dosing. Animals had access to water ad libitum throughout the study.[27]^,[28]

Wistar rats [1] = assay: Subacute toxicity: serum and urine glucose, urinary protein excretion; assay type: in vivo; conditions: for Filtered Load of Glucose / Fractional Excretion of Glucose / Serum Glucose / Urinary Glucose Excretion / Urinary Protein Excretion: rats, p.o., 14 days at 10% of LD50 (CCl4, APAP: once daily, 3 days), mean ± SEM, n = 6
Experimental: (§1) For toxicity tests, acclimatized rats were randomly allocated to 12 groups (n = 12 for the control and n = 6 for the rest groups). […] Meanwhile, the aforementioned vehicles (dose volume 2 mL/kg b.w.) were administered to 3 groups. […] The animals were then housed in individual metabolic cages to collect urine for a period of 6 h and then the volume was recorded. Afterward, blood samples were obtained and the serum was separated by centrifugation at 1,620 × g for 10 min at room temperature.
Serum and urine glucose concentration were calculated using GOD-PAP kits (RANDOX, Laboratories Ltd, UK). Urinary protein was quantified using the Bradford method.[29]
(§2) Serum and urinary creatinine were determined by the Jaffe method. With this value, evaluation was made of the fractional excretion of sodium (FES), fractional excretion of potassium (FEP), and fractional excretion of glucose.[30]^,[31] The GFR was calculated from clearance of endogenous creatinine using the conventional equation:where GFR (CCr) is the creatinine clearance rate (mL/min); UCr and SCr are the creatinine concentrations (mg/dL) in urine and serum, respectively; and φ is the urinary flow rate (UFR) (mL/min). To avoid the error from the tubular secretion of creatinine found in males, only female animals were used.
(§3) The levels of sodium and potassium were measured in urine and serum using a flame photometer (Corning 400, Medfield, United States). Calculation was made of the clearance, fractional excretion, and filtered load of sodium (FLS), filtered load of potassium (FLP), and filtered load of glucose (FLG) using the conventional equations:where CX is the clearance rate of X (mL/min), CCr is the creatinine clearance rate (mL/min), UX and SX are the […] concentrations of X, respectively, φ is the UFR (mL/min), FEX is the fractional excretion (%) of X, and FLX is the filtered load of X in μEq/min (Na^+ or K^+) or mg/min (glucose).

Wistar rats [2] = assay: Subacute toxicity: glomerular filtration rate (creatinine clearance) and serum creatinine; assay type: in vivo; conditions: for Glomerular Filtration Rate / Serum Creatinine: rats, p.o., 14 days at 10% of LD50 (CCl4, APAP: once daily, 3 days), mean ± SEM, n = 6
Experimental: as §1, §2

Wistar rats [3] = assay: Subacute toxicity: water and electrolyte balance (osmolality, sodium, potassium, urinary flow); assay type: in vivo; conditions: for Filtered Load of Potassium / Filtered Load of Sodium / Fractional Excretion of Potassium / Fractional Excretion of Sodium / Serum Osmolality / Serum Potassium / Serum Sodium / U/S Osm ratio / Urinary Flow Rate / Urinary Potassium Excretion / Urinary Sodium Excretion: rats, p.o., 14 days at 10% of LD50 (CCl4, APAP: once daily, 3 days), mean ± SEM, n = 6
Experimental: as §1
Osmolality of serum and urine were assessed (in triplicate) by using a vapor pressure osmometer (Wescor 5500, Logan, United States). U/S ratio as well as osmolar (COsm) and free water clearances were calculated via conventional equations:where UOsm and SOsm are the osmolality values (mOsm/Kg) in urine and serum, respectively, and φ is the UFR (mL/min).
as §3

Wistar rats [4] = assay: Subacute toxicity: serum alanine aminotransferase and alkaline phosphatase activity; assay type: in vivo; conditions: serum; rats, p.o., 14 days at 10% of LD50 (CCl4, APAP: once daily, 3 days); mean ± SEM, n = 6
Experimental: (§4) For toxicity tests, acclimatized rats were randomly allocated to 12 groups (n = 12 for the control and n = 6 for the rest groups). […] Meanwhile, the aforementioned vehicles (dose volume 2 mL/kg b.w.) were administered to 3 groups. […] Upon completion of the 14-day treatments and before sample collection, the bladders of animals were emptied by gentle pressure on the lower part of the abdomen to induce urination. The animals were then housed in individual metabolic cages to collect urine for a period of 6 h and then the volume was recorded. Afterward, blood samples were obtained and the serum was separated by centrifugation at 1,620 × g for 10 min at room temperature.
The activities of serum alanine aminotransferase (ALT) and alkaline phosphatase (ALP) were measured with standard kits (RANDOX, Laboratories Ltd, UK).

[5] = system: renal secretory pathway of organic anions; assay: Active tubular secretion of organic acids (PAH uptake in kidney cortex slices); assay type: in vivo, rats; conditions: kidney cortex slices, PAH 1 mM, 1 h, 25 °C; rats, p.o., 14 days at 10% of LD50 (CCl4, APAP: once daily, 3 days); mean ± SEM, n = 6
Experimental: as §4
p-Aminohippuric acid (PAH) was used as an indicator of the renal secretory pathway of organic anions. Kidneys were extracted and immediately submerged in Ringer solution (pH = 7.4 and mOsm = 290 ± 10 mOsm/kg) under constant bubbling with O2/CO2 (95/5%). The kidneys were decapsulated and slices of the kidney cortex were obtained, which were then incubated in Ringer solution containing PAH (1 mM) for 1 h at 25 °C under constant bubbling with O2/CO2 (95/5%). The levels of PAH were quantified with the Bratton-Marshall method and results were expressed as the PAH tissue/medium ratio (PAH t/m ratio).[31]^,[32]

Wistar rats [6] = assay: Hepatic and renal lipid peroxidation (lipid-soluble fluorescence); assay type: in vivo; conditions: rats, p.o., 14 days at 10% of LD50 (CCl4, APAP: once daily, 3 days), mean ± SEM, n = 6; for Renal Lipoperoxidation: kidney; for Hepatic Lipoperoxidation: liver
Experimental: as §4
Lipid peroxidation (LPO) was evaluated by the formation of lipid-soluble fluorescence, as previously described. Briefly, kidney and liver tissues were homogenized in 3 and 5 mL of phosphate buffer (0.2 M, pH = 7.4), respectively. A volume of 1 mL (kidney) or 0.8 mL (liver) of the homogenates was added to 7 mL of chloroform-methanol (2:1, v/v), and after 15 s of vortex mixing, the resulting mixture was cooled using an ice bath for 30 min to allow for phase separation. The fluorescence of the organic phase was measured using a Shimadzu fluorometer (Japan; λex = 370 nm; λem = 430 nm), whose sensitivity was adjusted to 140 fluorescence units by using 1 μg/mL of quinine sulfate in 50 mM H2SO4. The results were expressed as relative fluorescence units per milligram of protein.[33]
(§5) The protein concentration in homogenates was measured by the Bradford method.[29]

Wistar rats [7] = assay: Hepatic and renal reactive oxygen species (DCF formation); assay type: in vivo; conditions: rats, p.o., 14 days at 10% of LD50 (CCl4, APAP: once daily, 3 days), mean ± SEM, n = 6; for Renal ROS: kidney; for Hepatic ROS: liver
Experimental: as §4
Reactive oxygen species (ROS) were measured by formation of 2′,7′-dichlorofluorescein (DCF). An aliquot of 10 μL (kidney) or 5 μL (liver) of the homogenates was added to 1,940 or 1,945 μL of TRIS:HEPES (18:1) and was incubated in the presence of 50 μL of 2′,7′-dichlorofluorescein diacetate for 1 h at 37 °C. In order to quench the reaction, the mixture was chilled using an ice bath. The fluorescence was measured using a Shimadzu fluorometer (Japan; λex = 488 nm; λem = 525 nm). The results were expressed as nM DCF formed per mg protein/h.[33]
as §5

[8] = in comparison to the control group

## CCOC(=O)c1cn2ccccc2n1 [Compound 1a, ethyl imidazo[1,2-a]pyridine-2-carboxylate]
NIH mice
  Category (GHS acute oral toxicity hazard category): 5
  Hazard statement (GHS): May be harmful if swallowed
  Oral LD50: 3.175 g/kg b.w.
Wistar rats [1]; compared to control values
  FLG (filtered load of glucose), change in words: reduced
Wistar rats [1]
  Filtered Load of Glucose: 0.39 ± 0.17 mg/min
  Fractional Excretion of Glucose: 0.04 ± 0.01%
  Serum Glucose: 112.39 ± 4.92 mg/dL
  Urinary Glucose Excretion: 96.54 ± 29.03 ng/min
  Urinary Protein Excretion: 0.56 ± 0.10 µg/min
Wistar rats [2]; [8]
  GFR, change in words: lower
Wistar rats [2]
  Glomerular Filtration Rate: 0.34 ± 0.14 mL/min
  Serum Creatinine: 0.80 ± 0.14 mg/dL
Wistar rats [3]
  Filtered Load of Potassium: 2.69 ± 1.19 µEq/min
  Filtered Load of Sodium: 64.29 ± 26.43 µEq/min
  Fractional Excretion of Potassium: 22.26 ± 6.39%
  Fractional Excretion of Sodium: 0.74 ± 0.22%
  Serum Osmolality: 293.75 ± 1.88 mOsm/kg
  Serum Potassium: 6.57 ± 0.32 mEq/L
  Serum Sodium: 162.39 ± 5.03 mEq/L
  U/S Osm ratio: 3.02 ± 0.25
  Urinary Flow Rate: 4.17 ± 1.25 µL/min
  Urinary Potassium Excretion: 0.34 ± 0.06 µEq/min
  Urinary Sodium Excretion: 0.29 ± 0.08 µEq/min
Wistar rats [4]
  Alanine Aminotransferase: 22.22 ± 1.69 U/L
  Alkaline Phosphatase: 93.14 ± 11.91 U/L
[5]
  PAH t/m ratio: 2.51 ± 0.13
Wistar rats [6]
  Renal Lipoperoxidation: 0.28 ± 0.03 URF/mg protein
  Hepatic Lipoperoxidation: 0.75 ± 0.04 URF/mg protein
Wistar rats [7]
  Renal ROS: 161.18 ± 27.84 nM de DCF/mg protein/h
  Hepatic ROS: 317.94 ± 25.65 nM de DCF/mg protein/h

## CCOC(=O)c1nc2ccccn2c1[N+](=O)[O-] [Compound 1b, ethyl 3-nitroimidazo[1,2-a]pyridine-2-carboxylate]
NIH mice
  Category (GHS acute oral toxicity hazard category): 5
  Hazard statement (GHS): May be harmful if swallowed
  Oral LD50: >4.000 g/kg b.w.
Wistar rats [1]; compared to control values
  FEG (fractional excretion of glucose), change in words: increased
  FLG (filtered load of glucose), change in words: reduced
Wistar rats [1]
  Filtered Load of Glucose: 0.31 ± 0.04 mg/min
  Fractional Excretion of Glucose: 0.05 ± 3.9 E-3%
  Serum Glucose: 121.27 ± 7.88 mg/dL
  Urinary Glucose Excretion: 141.87 ± 18.46 ng/min
  Urinary Protein Excretion: 0.57 ± 0.07 µg/min
Wistar rats [2]; compared with 1a and 3b
  serum creatinine, change in words: higher
Wistar rats [2]; [8]
  GFR, change in words: lower
  serum creatinine level, change in words: greater
Wistar rats [2]
  Glomerular Filtration Rate: 0.25 ± 0.03 mL/min
  Serum Creatinine: 1.38 ± 0.07 mg/dL
Wistar rats [3]; in comparison with the control group
  FLS (filtered load of sodium), change in words: decreased
Wistar rats [3]
  Filtered Load of Potassium: 1.70 ± 0.21 µEq/min
  Filtered Load of Sodium: 39.31 ± 4.28 µEq/min
  Fractional Excretion of Potassium: 15.58 ± 3.10%
  Fractional Excretion of Sodium: 0.85 ± 0.09%
  Serum Osmolality: 294.04 ± 0.88 mOsm/kg
  Serum Potassium: 6.74 ± 0.39 mEq/L
  Serum Sodium: 155.42 ± 3.63 mEq/L
  U/S Osm ratio: 2.54 ± 0.20
  Urinary Flow Rate: 4.54 ± 0.76 µL/min
  Urinary Potassium Excretion: 0.24 ± 0.03 µEq/min
  Urinary Sodium Excretion: 0.34 ± 0.05 µEq/min
Wistar rats [4]
  Alanine Aminotransferase: 30.10 ± 2.99 U/L
  Alkaline Phosphatase: 101.41 ± 16.30 U/L
[5]
  PAH t/m ratio: 2.00 ± 0.13
Wistar rats [6]
  Renal Lipoperoxidation: 0.38 ± 0.07 URF/mg protein
  Hepatic Lipoperoxidation: 0.74 ± 0.07 URF/mg protein
Wistar rats [7]
  Renal ROS: 227.17 ± 21.01 nM de DCF/mg protein/h
  Hepatic ROS: 285.90 ± 37.33 nM de DCF/mg protein/h
